Assay results published in patent publication US20240197766A1, “TREATMENT OF RNA VIRUS INFECTION WITH A CYTIDINE” (The Cleveland Clinic Foundation, priority 2021, published 2024).
“And” between values parts separate entries of the source, which are not always exact repeats. Equal entries are not always repeated. “Also recorded” adds a separate entry of the source. Where two headings read alike, the source gives them in different places.

Assays:
[1] = test system: cytidine analog deamination; experiment: THU clinical pharmacodynamics: deamination of co-administered cytidine analogs
[2] = test system: coronavirus; type: cell-based; details: THU 24 hours at clinically relevant concentrations, human lung epithelial cells, plaque assay and QRT-PCR
[3] = cited from earlier work
[4] = test system: serum uridine levels; experiment: THU clinical pharmacodynamics: serum uridine and cytidine levels
Experimental: Volunteers (3 males; 3 females) received a single THU dose of 750 mg 7 days apart, the 1st dose in a fasted state and the 2nd after a standard FDA meal.

[5] = THU clinical pharmacokinetics, oral 750 mg in healthy volunteers; details: male, human, in vivo
[6] = test system: host cell; details: clinically relevant concentrations, data from Xiong et al.; cited from earlier work
[7] = read-out: routine Cmax; clinical; cited from earlier work
[8] = test system: CMV; details: case series of renal transplantation patients; cited from earlier work

O=C1NC(O)CCN1[C@@H]1O[C@H](CO)[C@@H](O)[C@H]1O (stereo partly shown) [THU, tetrahydrouridine]
reduction in cytidine analog deamination [1]: ~90%
coronavirus (VSV) replication [2]: inhibited coronavirus replication; also recorded: significantly inhibited
administered drug excreted through the kidneys within 24 h ([3]; renal excretion, within 24 h): approximately 50%
elimination within 48 hours ([3]; within 48 hours): 100%
decrease of uridine availability to non-dividing cells ([4]; inhibition of 2 CDA-mediated uridine supply routes): ≤ 90%
serum cytidine levels ([4]; single THU dose of 750 mg): increasing
decrease in serum uridine levels ([4]; single THU dose of 750 mg, fasted and fed states, males and females): 50-80% and 50-90%
reduction of uridine available for systemic salvage ([4]; standard, non-toxic doses): up to 90%
Cmax [5]: 2 µM to 8 µM and 500 ng/mL to 2000 ng/mL
Tmax [5]: ~3 h

C/C(O)=C(\C#N)C(=O)Nc1ccc(C(F)(F)F)cc1 [Teriflunomide, teriflunomide]
host cell cytotoxicity [6]: minimal
Cmax [7]: 10 to 100 µM

Cc1oncc1C(=O)Nc1ccc(C(F)(F)F)cc1 [leflunomide]
clinical outcome of CMV infection [8]: cleared virus and/or produced clinical improvement
